Results: US20190240225A1, “COMBINATION OF A BCL-2 INHIBITOR AND A MCL-1 INHIBITOR, USES AND PHARMACEUTICAL COMPOSITIONS THEREOF” (LES LABORATOIRES SERVIER, priority 2016, published 2019)

Tests used:
U266 = assay: MTT cell viability assay, myeloma cell line; assay type: cell-based, human; settings: Homo sapiens, U-266, single agent, read-out: IC50
Experimental: (§1) Cell lines: Human myeloma cell lines (HMCLs) were derived from primary myeloma cells cultured in RPMI 1640 medium supplemented with 5% fetal calf serum from and 3 ng/mL recombinant IL-6 for IL-6 dependent cell lines. HMCLs are representative of phenotypic and genomic heterogeneity and the variability in patient's response to therapy.
(§2) MTT assay: Cell viability is measured using MTT (3-(4,5-dimethylthiazol-2-yl)-2,5-diphenyltetrazolium bromide) colorimetric survival assay. Cells are incubated with compounds in 96-well plates containing a final volume of 100 μl/well time. (2R)-2-{[(5Sa)-5-{3-chloro-2-methyl-4-[2-(4-methylpiperazin-1-yl)ethoxy]phenyl}-6-(5-fluorofuran-2-yl)thieno[2,3-d]pyrimidin-4-yl]oxy}-3-(2-{[1-(2,2,2-trifluoroethyl)-1H-pyrazol-5-yl]methoxy}phenyl)propanoic acid (Compound 2) is used at 9 different concentrations accordingly to single agent sensitivity. N-(4-hydroxyphenyl)-3-{6-[((3S)-3-(4-morpholinylmethyl)-3,4-dihydro-2(1H)-isoquinolinyl)carbonyl]-1,3-benzodioxol-5-yl}-N-phenyl-5,6,7,8-tetrahydro-1-indolizine carboxamide hydrochloride (Compound 1, HCl) is used at a fixed dose—1 μM. At the end of each treatment, cells are incubated with 1 mg/mL MTT (50 μl MTT solution 2.5 mg/ml for each well) at 37° C. for 3 hours allowing the MTT to be metabolized. Lysis buffer (100 μl Lysis buffer: DMF (2:3)/SDS (1:3)) is added into each well to dissolve formazan cristals and after 18 h of incubation, absorbance in viable cells is measured at 570 nm using a spectrophotometer.
(§3) The sensitivity of 27 human multiple myeloma cell lines to Compound 1, Compound 2 or to Compound 2 in the presence of 1 μM of Compound 1 was analyzed by using MTT cell viability assay. 50% inhibitory concentrations (IC50, in nM) were determined.

XG1 = assay: MTT cell viability assay, myeloma cell line; assay type: cell-based, human; settings: Homo sapiens, single agent, read-out: IC50
Experimental: as §1, §2, §3

AMO1 = assay: MTT cell viability assay, myeloma cell line; assay type: cell-based, human; settings: Homo sapiens, single agent, read-out: IC50
Experimental: as §1, §2, §3

XG11 = assay: MTT cell viability assay, myeloma cell line; assay type: cell-based, human; settings: Homo sapiens, single agent, read-out: IC50
Experimental: as §1, §2, §3

NAN1 = assay: MTT cell viability assay, myeloma cell line; assay type: cell-based, human; settings: Homo sapiens, single agent, read-out: IC50
Experimental: as §1, §2, §3

[1] = test system: Acute Myeloid Leukemia (AML) cell lines; assay: CellTiterGlo viability, panel of AML cell lines; assay type: cell-based; settings: all 5 AML cell lines of combination (c); single agent; read-out: IC50s
Experimental: In addition, all media contained penicillin (100 IU/ml), streptomycin (100 μg/ml) and L-glutamine (2 mM).
Cell lines were cultured at 37° C. in a humidified atmosphere containing 5% CO2 and expanded in T-150 flasks. In all cases cells were thawed from frozen stocks, expanded through ≥1 passage using appropriate dilutions, counted and assessed for viability using a CASY cell counter prior to plating 150 ul/well at the densities indicated in Table 1 into 96-well plates. All cell lines were determined to be free of mycoplasma contamination in-house.
Stock solutions of compounds were prepared at a concentration of 5 mM in DMSO and stored at −20° C.
In order to analyse the activity of the compounds as single agents, cells were seeded and treated with nine 2-fold serial dilutions of each compound dispensed individually directly into the cell assay plates. Effects of the compounds on cell viability were assessed after 3 days of incubation at 37° C./5% CO2 by quantification of cellular ATP levels using CellTiterGlo at 75 μL reagent/well. All the experiments were performed in triplicates. Luminescence was quantified on a multipurpose plate reader. Single agent IC50s were calculated using standard four-parametric curve fitting. […]
In order to analyse the activity of the compounds in combination, cells were seeded and treated with seven or eight 3.16-fold serial dilutions of each compound dispensed, either individually or in all possible permutations in a checkerboard fashion, directly into the cell assay plates as indicated in FIG. 9. Effects of the single agents as well as their checkerboard combinations on cell viability were assessed after 3 days of incubation at 37° C./5% CO2 by quantification of cellular ATP levels using CellTiterGlo at 75 μL reagent/well. […] Luminescence was quantified on a multipurpose plate reader.
Potential synergistic interactions between compound combinations were assessed using the Excess Inhibition 2D matrix according to the Loewe additivity model and are reported as Synergy Score (Lehar et al, Nat Biotechnol. 2009 July; 27(7): 659-666). […]

Structure (SMILES)	IC50 (U266)	IC50 (XG1)	IC50 (AMO1)	IC50 (XG11)	IC50 (NAN1)	IC50 [1]
Cl.O=C(c1cc(-c2cc3c(cc2C(=O)N2Cc4ccccc4C[C@H]2CN2CCOCC2)OCO3)n2c1CCCC2)N(c1ccccc1)c1ccc(O)cc1 [Compound 1, HCl, N-(4-hydroxyphenyl)-3-{6-[((3S)-3-(4-morpholinylmethyl)-3,4-dihydro-2(1H)-isoquinolinyl)carbonyl]-1,3-benzodioxol-5-yl}-N-phenyl-5,6,7,8-tetrahydro-1-indolizine carboxamide hydrochloride]	> 30 µM	9.78 µM	8.61 µM	7.91 µM	6.66 µM	
COc1ccccc1-c1nccc(COc2ccccc2C[C@@H](Oc2ncnc3sc(-c4ccc(F)cc4)c(-c4ccc(OCCN5CCN(C)CC5)c(Cl)c4C)c23)C(=O)O)n1 [Compound 3, (2R)-2-{[(5Sa)-5-{3-chloro-2-methyl-4-[2-(4-methylpiperazin-1-yl)ethoxy]phenyl}-6-(4-fluorophenyl)thieno[2,3-d]pyrimidin-4-yl]oxy}-3-(2-{[2-(2-methoxyphenyl)pyrimidin-4-yl]methoxy}phenyl)propanoic acid]						< 0.2 µM
